Experiments:
C57BL/6 mice = assay: Delayed-type hypersensitivity model; type: in vivo, mouse; details: 200 mg/kg BID P.O.
Method: Mice were immunized with OVA (100 μg, SC) (Sigma) in complete Freund’s adjuvant (Spectrum Chemicals and Laboratory Products) on day 0 and then challenged again with OVA (10 μg in PBS, SC right ear) on day 6. Ear thickness was measured by calipers, and unchallenged ear thickness was subtracted from OVA challenged ear thickness after 24 and 44 h. […] Investigators were not blinded to experimental samples.

[1] = tested on: 222 recombinant human kinases; assay: SelectScreen kinase panel, overall selectivity; type: biochemical; details: 1 μM
Method: The ability of NIK to catalyze the hydrolysis of adenosine-5′-triphosphate (ATP) was monitored using the Transcreener ADP (adenosine-5′-diphosphate) assay (Bell Brook Labs, Fitchburg, WI). Purified human NIK kinase domain (a.a. 340–694) (0.5 nM) or mouse NIK kinase domain (a.a. 329–675) (1 nM) derived from a baculovirus-infected insect cell expression system was incubated with test compounds for 0.5–2 h in 50 mM HEPES buffer (pH 7.2) containing 10 mM MgCl2, 2 mM dithiothreitol, 10 μM ATP, 0.01% Triton X-100, 0.1% gamma-globulins from bovine blood, 1% dimethylsulfoxide (DMSO), 7 μg/mL ADP antibody and 5 nM ADP-MR121 633 tracer. […] The tracer bound to the antibody was displaced by the ADP generated during the NIK reaction, which caused a decrease in fluorescence polarization that was measured by laser excitation at 633 nm with a Fluorescence Correlation Spectroscopy Plus reader (Evotec AG). Equilibrium dissociation constant (Ki) values for NIK inhibitors are calculated from plots of activity vs. inhibitor concentration using Morrison’s quadratic equation that accounts for the potential of tight binding, and by also applying the conversion factor that accounted for competitive inhibition and the concentration of substrate used in the assay relative to its Michaelis constant (Km). The Ki values with hPKD1 (PKCμ) were determined using the same assay conditions as for NIK. […]

PhK_gamma2 = biological target: T1, PhK_gamma2 (Homo sapiens, UniProt P15735); assay: SelectScreen kinase panel; type: biochemical
T1 construct: purchased Invitrogen / ThermoFisher SelectScreen
T1 sequence (P15735 whole entry): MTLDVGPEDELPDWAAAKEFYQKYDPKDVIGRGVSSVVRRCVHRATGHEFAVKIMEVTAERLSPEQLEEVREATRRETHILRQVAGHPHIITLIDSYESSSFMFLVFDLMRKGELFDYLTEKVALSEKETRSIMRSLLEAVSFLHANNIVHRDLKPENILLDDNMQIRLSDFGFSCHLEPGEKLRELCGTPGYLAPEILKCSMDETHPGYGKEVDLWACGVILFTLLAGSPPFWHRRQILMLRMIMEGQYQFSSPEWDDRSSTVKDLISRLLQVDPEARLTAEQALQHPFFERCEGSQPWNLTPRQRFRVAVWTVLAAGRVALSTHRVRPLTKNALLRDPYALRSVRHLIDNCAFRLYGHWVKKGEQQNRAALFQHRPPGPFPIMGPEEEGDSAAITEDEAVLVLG

With `COc1cc(C(N)=O)nc(-c2cccc(C#C[C@]3(O)CCN(C)C3=O)c2)c1` [NIK SMI1] the “effect in delayed type hypersensitivity study” value (C57BL/6 mice) was “partial effect”, the “off-target kinases inhibited to an extent >75%” value [1] was 3 out of 222 and the inhibition at 1 µM (PhK_gamma2) was -3%.

Source: publication PMC5766581, “NF-κB inducing kinase is a therapeutic target for systemic lupus erythematosus” (Nature Communications, 2018)
